Patent publication US20260097002A1, “METHOD OF TREATMENT AND DEVICE FOR THE IMPROVED BIOAVAILABILITY OF LEUKOTRIENE RECEPTOR ANTAGONISTS” (INTELGENX CORP., priority 2022, published 2026)

Tests used:
[1] = Clinical study: plasma pharmacokinetics, film vs Singulair tablet; type: in vivo; details: human, oral, 10 mg, clinical trials of the film, read-out: Tmax of plasma levels
Description: We have performed a clinical study of our product to determine the pharmacokinetics of the API loaded into this pharmaceutical platform. […] Singulair® is the marketed formulation of MTL, commonly prescribed for asthma sufferers. It consists of a 10 mg loaded API tablet. The Cmax and Tmax values are listed below, see Table 2. […] These higher values for our films means that we could load less API into the film product and achieve the same Cmax/AUC as the Singulair® reference product. The major difference between the disclosed Intelgenx prototype and Singulair® is the physical state of the MTL once it reaches the stomach. In the Singulair® product, the MTL reaches the stomach in a compressed solid state and thus must solubilize in the stomach under unfavorable conditions. […] The MTL is then transferred to the small intestine via the pylori. Since the MTL is already present as a suspended precipitate, the MTL may more easily reach the small intestine through the leaking pylori. It is well known that the pylori is not leak proof and allows some liquid to flow through even in its closed position. […] In particular, the chewable dosage form is about 1.17 times more bioavailable than the tablet when administered in a fasting subject (compared using available bioavailability date shown in Table 2). […]

plasma proteins = details: cited from earlier work
[2] = rats dosed with radiolabeled MTL; cited from earlier work
[3] = MTL in tablet form; cited from earlier work

Tmax [1]: 2 to 4 h
Compound: CC(C)(O)c1ccccc1CC[C@@H](SCC1(CC(=O)O)CC1)c1cccc(/C=C/c2ccc3ccc(Cl)cc3n2)c1 [MTL, Montelukast]
Bound to plasma proteins (plasma proteins): more than 99%
Distribution across the blood-brain barrier [2]: minimal distribution
Time to maximum concentrations in blood stream [3]: 2 to 4 h
